Assay results taken from PubChem BioAssay AID1259407 (Chemical Carcinogenesis Research Information System (CCRIS), 2018).
The source made the active and inactive calls. How the calls were made is not given here.

System: CCRIS mutagenicity, Ames/micronucleus/aberration tests
Assay: CCRIS mutagenicity studies
[1] = Test System: AMES SALMONELLA TYPHIMURIUM, Strain/Indicator: TA100, Metabolic Activation: NONE, Method: STANDARD PLATE
[2] = Test System: MOUSE LYMPHOMA, Strain/Indicator: L5178Y (TK+/TK-), Metabolic Activation: NONE, Method: SUSPENSION/PLATE

## O=CC=O
End Point: IN VITRO CHROMOSOMAL ABERRATIONS, Test System: CHL CELLS, Metabolic Activation: NONE
  mutagenic call: active; positive (structural and ploidy changes)
End Point: IN VITRO CHROMOSOMAL ABERRATIONS, Test System: CHL CELLS, Metabolic Activation: RAT, LIVER, S-9, SODIUM PHENOBARBITAL AND 5,6-BENZOFLAVONE
  mutagenic call: active; positive (structural and ploidy changes)
Test System: AMES SALMONELLA TYPHIMURIUM, Strain/Indicator: TA97, Metabolic Activation: NONE, Method: PREINCUBATION
  mutagenic call: inactive; negative
Test System: AMES SALMONELLA TYPHIMURIUM, Strain/Indicator: TA98, Metabolic Activation: RAT, LIVER, S-9, AROCLOR 1254, Method: PREINCUBATION
  mutagenic call: active; positive
Test System: AMES SALMONELLA TYPHIMURIUM, Strain/Indicator: TA100, Metabolic Activation: NONE
  mutagenic call: active; positive
[1]
  mutagenic call: active; positive
Test System: AMES SALMONELLA TYPHIMURIUM, Strain/Indicator: TA100, Metabolic Activation: RAT LIVER S-9, PHENOBARBITAL AND BETA-NAPHTHOFLAVONE, Method: PREINCUBATION
  mutagenic call: active; positive
Test System: AMES SALMONELLA TYPHIMURIUM, Strain/Indicator: TA100, Metabolic Activation: RAT, LIVER, S-9, AROCLOR 1254, Method: PREINCUBATION
  mutagenic call: active; positive
Test System: AMES SALMONELLA TYPHIMURIUM, Strain/Indicator: TA100, Metabolic Activation: RAT, LIVER, S-9, PHENOBARBITAL AND 5,6-BENZOFLAVONE, Method: PREINCUBATION
  mutagenic call: active; positive
Test System: AMES SALMONELLA TYPHIMURIUM, Strain/Indicator: TA100, Metabolic Activation: S-9
  mutagenic call: active; positive
Test System: AMES SALMONELLA TYPHIMURIUM, Strain/Indicator: TA102, Metabolic Activation: RAT, LIVER, S-9, AROCLOR 1254, Method: PREINCUBATION
  mutagenic call: active; positive
Test System: AMES SALMONELLA TYPHIMURIUM, Strain/Indicator: TA102, Metabolic Activation: RAT, LIVER, S-9, AROCLOR 1254, Method: STANDARD PLATE
  mutagenic call: active; positive
Test System: AMES SALMONELLA TYPHIMURIUM, Strain/Indicator: TA102, Metabolic Activation: RAT, LIVER, S-9, PHENOBARBITAL AND 5,6-BENZOFLAVONE, Method: PREINCUBATION
  mutagenic call: active; positive
Test System: AMES SALMONELLA TYPHIMURIUM, Strain/Indicator: TA104, Metabolic Activation: NONE, Method: PREINCUBATION
  mutagenic call: active; positive
Test System: AMES SALMONELLA TYPHIMURIUM, Strain/Indicator: TA104, Metabolic Activation: RAT, LIVER, S-9, PHENOBARBITAL AND 5,6-BENZOFLAVONE, Method: PREINCUBATION
  mutagenic call: active; positive
Test System: AMES SALMONELLA TYPHIMURIUM, Strain/Indicator: TA1535, Metabolic Activation: RAT LIVER S-9, PHENOBARBITAL AND BETA-NAPHTHOFLAVONE, Method: PREINCUBATION
  mutagenic call: active; positive
Test System: AMES SALMONELLA TYPHIMURIUM, Strain/Indicator: TA1537, Metabolic Activation: NONE, Method: PREINCUBATION
  mutagenic call: active; positive
Test System: AMES SALMONELLA TYPHIMURIUM, Strain/Indicator: TA1537, Metabolic Activation: RAT LIVER S-9, PHENOBARBITAL AND BETA-NAPHTHOFLAVONE, Method: PREINCUBATION
  mutagenic call: inactive; negative
Test System: AMES SALMONELLA TYPHIMURIUM, Strain/Indicator: TA2638A, Metabolic Activation: RAT LIVER S-9, AROCLOR 1254, Method: STANDARD PLATE
  mutagenic call: active; positive
Test System: AMES SALMONELLA TYPHIMURIUM, Strain/Indicator: TA7001, Metabolic Activation: NONE, Method: PREINCUBATION
  mutagenic call: inactive; negative
Test System: AMES SALMONELLA TYPHIMURIUM, Strain/Indicator: TA7002, Metabolic Activation: NONE, Method: PREINCUBATION
  mutagenic call: inactive; negative
Test System: AMES SALMONELLA TYPHIMURIUM, Strain/Indicator: TA7003, Metabolic Activation: NONE, Method: PREINCUBATION
  mutagenic call: inactive; negative
Test System: AMES SALMONELLA TYPHIMURIUM, Strain/Indicator: TA7004, Metabolic Activation: NONE, Method: PREINCUBATION
  mutagenic call: active; positive
Test System: AMES SALMONELLA TYPHIMURIUM, Strain/Indicator: TA7005, Metabolic Activation: NONE, Method: PREINCUBATION
  mutagenic call: active; positive
Test System: AMES SALMONELLA TYPHIMURIUM, Strain/Indicator: TA7006, Metabolic Activation: NONE, Method: PREINCUBATION
  mutagenic call: active; positive
Test System: E. COLI, Strain/Indicator: W3110, Metabolic Activation: NONE, Method: PREINCUBATION
  mutagenic call: active; positive
Test System: E. COLI, Strain/Indicator: WP2UVRA, Metabolic Activation: NONE, Method: PREINCUBATION
  mutagenic call: active; positive
Test System: E. COLI, Strain/Indicator: WP2UVRA, Metabolic Activation: RAT LIVER S-9, PHENOBARBITAL AND BETA-NAPHTHOFLAVONE, Method: PREINCUBATION
  mutagenic call: active; positive
[2]
  mutagenic call: active; positive

## C=C(C)C(C)Cl (stereo not given)
Test System: AMES SALMONELLA TYPHIMURIUM, Strain/Indicator: TA100, Metabolic Activation: NONE, Method: LIQUID SUSPENSION
  mutagenic call: active; positive

## O=[N+]([O-])c1c(Cl)cc2c(c1Cl)Oc1cc(Cl)c(Cl)cc1O2
Test System: AMES SALMONELLA TYPHIMURIUM, Strain/Indicator: TA98, Metabolic Activation: NONE, Method: STANDARD PLATE
  mutagenic call: inactive; negative
Test System: AMES SALMONELLA TYPHIMURIUM, Strain/Indicator: TA98, Metabolic Activation: RAT, LIVER, S-9, AROCLOR, Method: STANDARD PLATE
  mutagenic call: inactive; negative
[1]
  mutagenic call: inactive; negative
Test System: AMES SALMONELLA TYPHIMURIUM, Strain/Indicator: TA100, Metabolic Activation: RAT, LIVER, S-9, AROCLOR, Method: STANDARD PLATE
  mutagenic call: inactive; negative

## C1CCCC2OC2CC1 (stereo not given)
[1]
  mutagenic call: inactive; negative
Test System: AMES SALMONELLA TYPHIMURIUM, Strain/Indicator: TA100, Metabolic Activation: RAT, LIVER, S-9, AROCLOR 1254, Method: STANDARD PLATE
  mutagenic call: inactive; negative
Test System: AMES SALMONELLA TYPHIMURIUM, Strain/Indicator: TA1535, Metabolic Activation: NONE, Method: STANDARD PLATE
  mutagenic call: inactive; negative
Test System: AMES SALMONELLA TYPHIMURIUM, Strain/Indicator: TA1535, Metabolic Activation: RAT, LIVER, S-9, AROCLOR 1254, Method: STANDARD PLATE
  mutagenic call: inactive; negative
Test System: UDS RAT HEPATOCYTES, Strain/Indicator: THY INCORP, Metabolic Activation: NONE
  mutagenic call: inactive; negative

## O=S(=O)(O)Oc1cccc2c1cc1ccc3cccc4ccc2c1c34
Test System: AMES SALMONELLA TYPHIMURIUM, Strain/Indicator: TA98, Metabolic Activation: NONE, Method: PREINCUBATION
  mutagenic call: inactive; negative
Test System: AMES SALMONELLA TYPHIMURIUM, Strain/Indicator: TA98, Metabolic Activation: RAT, LUNG, S-9, Method: PREINCUBATION
  mutagenic call: inactive; negative

## CCCCNC(=O)c1cc(N)ccc1Oc1ccccc1
Test System: Ames Salmonella typhimurium, Strain/Indicator: TA98, Metabolic Activation: None, Method: Preincubation
  mutagenic call: inactive; negative. data for this compound, pa10, mentioned in abstract only.
Test System: Ames Salmonella typhimurium, Strain/Indicator: TA98, Metabolic Activation: Rat, Liver, S-9, Phenobarbital and beta-naphthoflavone, Method: Preincubation
  mutagenic call: inactive; negative. this compound, pa10, converted by s-9 to a hydroxy derivative.
Test System: Ames Salmonella typhimurium, Strain/Indicator: TA100, Metabolic Activation: None, Method: Preincubation
  mutagenic call: inactive; negative. data for this compound, pa10, mentioned in abstract only.
Test System: Ames Salmonella typhimurium, Strain/Indicator: TA100, Metabolic Activation: Rat, Liver, S-9, Phenobarbital and beta-naphthoflavone, Method: Preincubation
  mutagenic call: inactive; negative. this compound, pa10, converted by s-9 to a hydroxy derivative.
Test System: Ames Salmonella typhimurium, Strain/Indicator: TA102, Metabolic Activation: None, Method: Preincubation
  mutagenic call: inactive; negative. data for this compound, pa10, mentioned in abstract only.
Test System: Ames Salmonella typhimurium, Strain/Indicator: TA1535, Metabolic Activation: None, Method: Preincubation
  mutagenic call: inactive; negative. data for this compound, pa10, mentioned in abstract only.
Test System: Ames Salmonella typhimurium, Strain/Indicator: TA1537, Metabolic Activation: None, Method: Preincubation
  mutagenic call: inactive; negative. data for this compound, pa10, mentioned in abstract only.

## O=P(O)(O)OC1C(OP(=O)(O)O)C(OP(=O)(O)O)C(OP(=O)(O)O)C(OP(=O)(O)O)C1OP(=O)(O)O (stereo not given)
[2]
  mutagenic call: inactive; negative. reevaluation of results: negative
Test System: MOUSE LYMPHOMA, Strain/Indicator: L5178Y (TK+/TK-), Metabolic Activation: RAT, LIVER, S-9, AROCLOR 1254, Method: SUSPENSION/PLATE
  mutagenic call: inactive; negative. reevaluation of results: negative
